In publication PMC10353390, “Biological and Structural Analyses of New Potent Allosteric Inhibitors of HIV-1 Integrase” (Antimicrobial Agents and Chemotherapy, 2023):
Like-named read-outs stand apart in the source and are kept apart here.

Tests used:
[1] = tested on: primary HIV-1 isolates with polymorphisms at IN positions 124 and 125; test: Multiple-round infection of MT4 cells with primary HIV-1 isolates polymorphic at IN positions 124 and 125; format: cell-based; settings: primary isolate
Method in brief: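 Antiviral potency read as protection of cell viability (CellTiter-Glo luminescence). Infection at MOI 0.001 lasted 2 h with compound present at a range of concentrations, using MT4 cells at 10^6/mL in exponential growth.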

[2] = molecular target: CCD of HIV-1 IN and IBD of LEDGF/p75 (Human immunodeficiency virus type 1 group M subtype B, UniProt P12497); test: biochemical
[3] = tested on: NL4-3 HIV-1 with INLAI-selected IN single point mutations; format: cell-based
[4] = tested on: lab-adapted and clinical HIV-1 isolates; test: Infection assays in primary T CD4+ lymphocytes; format: cell-based; settings: Human immunodeficiency virus 1, Lymphocyte
[5] = molecular target: HIV-1 IN-LEDGF/p75 interaction (Human immunodeficiency virus type 1 group M subtype B, UniProt P12497); test: biochemical
[6] = tested on: HXB2 HIV-1 strain; test: Multiple-round infection assay in MT4 cells, HXB2; format: cell-based; settings: Human immunodeficiency virus 1, HXB2; multiple-round infection, MT4 cells; mean ± SD, n > 5; read-out: EC50 HXB2
Method in brief: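 Antiviral read-out was CellTiter-Glo luminescent viability of exponentially growing MT4 cells (10^6/mL). Cells were exposed to HIV-1 for 2 h at an MOI of 0.001 while compound was present at varying concentrations.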

[7] = tested on: HIV-1 strains resistant to INSTIs, NRTIs, NNRTIs or PIs; format: cell-based; settings: PI-resistant virus
Method in brief: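 Cell viability (CellTiter-Glo luminescence) served as read-out in MT4 cells at 10^6/mL, infected 2 h at MOI 0.001 in presence of graded compound concentrations. Viruses: resistance-mutation recombinants in NL4-3 backbone plus resistant clinical isolates.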

[8] = Cytotoxicity assay in MT4 cells; format: cell-based; settings: human, MT4 cells (proliferating human T-cell line), CellTiter-Glo
Source text: Growth inhibition was monitored in a proliferating human T-cell line (MT4) with different concentrations of compounds, using the CellTiter-Glo luminescent reagent (Promega), as previously described ([12]).

[9] = tested on: VSV-G-pseudotyped NL4-3Δenv-luc; test: microbe, parasite or virus in culture; format: cell-based, HIV-1; settings: Human immunodeficiency virus 1, NL43, MT4, read-out: EC50 in single-round infection
[10] = molecular target: T1, HIV-1 IN (Human immunodeficiency virus type 1 group M subtype B, UniProt P12497); test: HTRF IN multimerization assay; format: biochemical; settings: mean ± SD
T1 construct: made in house
Source text: A key property of INLAIs is the ability to promote HIV-1 IN homo-multimerization ([39][–][42]). […] The maximal signal (plateau) in our IN aggregation assay corresponds to the highest HTRF signal increase under saturating INLAI concentration, relative to baseline level. Thus, MUT916, MUT884, MUT871, and MUT872 increased HIV-1 IN aggregation 3.7 to 4.4-fold, while BDM-2, BI-224436, and S-I-82 did so 5 to 6-fold (Table 1).

[11] = tested on: recombinant NL4-3 viruses with polymorphisms at IN positions 124 and 125; test: Multiple-round infection of MT4 cells with recombinant NL4-3 viruses polymorphic at IN positions 124 and 125; format: cell-based, HIV-1
Method in brief: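 EC50 fold change relative to wild-type TT NL4-3 was derived from CellTiter-Glo viability of exponentially growing MT4 cells (10^6/mL). Cells were exposed for 2 h, with compounds, to NL4-3 clones bearing one of 15 IN 124/125 variants at MOI 0.001.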

[12] = tested on: NL4-3 HIV-1 strain; test: Multiple-round infection assay in MT4 cells, NL4-3; format: cell-based; settings: MT4 cells
[13] = set-up: method as in ref 22 = [22]; 22 Meng X , Donazzolo Y , Kim B , Kim K . 2022 . The first-in-human clinical trial of STP0404, a novel potent HIV-1 allosteric integrase inhibitor . Poster PESUB2624th AIDS Conference , Montreal, Cana; settings: cited from earlier work

Cc1cc(NS(=O)(=O)CC2CCCCC2)c(C)c(C(OC(C)(C)C)C(=O)O)c1-c1ccc2c(c1)CCCO2 (centres unmarked) [S-I-82, reference compound]
Fold change in EC50 relative to parental NL4-3, CAM2BBY (CRF02) ([1]; IN 124/125 AA): 2
Fold change in EC50 relative to parental NL4-3, E0836M4 (D) ([1]; IN 124/125 AA): 1
Fold change in EC50 relative to parental NL4-3, KER2008 (A) ([1]; IN 124/125 AA): 1
Fold change in EC50 relative to parental NL4-3, NP1525 (CRF01) ([1]; IN 124/125 AA): 2
Fold change in EC50 relative to parental NL4-3, NP1695 (CRF02) ([1]; IN 124/125 AA): 1
Fold change in EC50 relative to parental NL4-3, TZA125 (C) ([1]; IN 124/125 AA): 1
Fold change in EC50 relative to parental NL4-3, KSM4030 (A) ([1]; IN 124/125 GA): 6
Fold change in EC50 relative to parental NL4-3, vGA (C) ([1]; IN 124/125 GA): 4
Fold change in EC50 relative to parental NL4-3, 99ET14 (C) ([1]; IN 124/125 NA): 210
Fold change in EC50 relative to parental NL4-3, NP1538 (B) ([1]; IN 124/125 NA): 1
Fold change in EC50 relative to parental NL4-3, vNA_1 (B) ([1]; IN 124/125 NA): 23
Fold change in EC50 relative to parental NL4-3, vNA_2 (CRF02) ([1]; IN 124/125 NA): 23
Fold change in EC50 relative to parental NL4-3, vNV (B) ([1]; IN 124/125 NV): 34
Fold change in EC50 relative to parental NL4-3, vSA_1 (B) ([1]; IN 124/125 SA): 12
Fold change in EC50 relative to parental NL4-3, vSA_2 (CRF02) ([1]; IN 124/125 SA): 4
Fold change in EC50 relative to parental NL4-3, vTA_1 (B) ([1]; IN 124/125 TA): 3
Fold change in EC50 relative to parental NL4-3, vTA_2 (CRF02) ([1]; IN 124/125 TA): 3
IC50 [2]: 430 ± 130 nM
EC50 fold change compared to wild type NL4-3, A128T [3]: 4
EC50 fold change compared to wild type NL4-3, H171Q [3]: 2
EC50 fold change compared to wild type NL4-3, N222K [3]: 1
EC50 fold change compared to wild type NL4-3, T174I [3]: 15
EC50 fold change compared to wild type NL4-3, Y99H [3]: 2
EC50 ([4]; read-out: EC50 33913N (B)): 4.4 ± 1.9 nM
EC50 ([4]; read-out: EC50 HXB2 (B)): 5.2 ± 3.9 nM
EC50 ([4]; read-out: EC50 KER2008 (A)): 11 ± 2 nM
EC50 ([4]; read-out: EC50 NL4-3 (B)): 9.9 ± 1.1 nM
EC50 ([4]; read-out: EC50 NP1525 (CRF01_AE)): 10 ± 4 nM
EC50 ([4]; read-out: EC50 NP1538 (B)): 8.6 ± 0.5 nM
IC50 [5]: 820 ± 380 nM
EC50 [6]: 4.1 ± 0.7 nM
Fold change in EC50 relative to NL4-3, ARP-4595 [7]: 1
Fold change in EC50 relative to NL4-3, ARP-4596 [7]: 0.5
Fold change in EC50 relative to NL4-3, ARP-11801 [7]: 1
Fold change in EC50 relative to NL4-3, ARP-11803 [7]: 1
Fold change in EC50 relative to NL4-3, ARP-11807 [7]: 1
Fold change in EC50 relative to NL4-3, ARP-11808 [7]: 1
CC50 [8]: 28000 ± 3000 nM
EC50 [9]: 9200 ± 1100 nM
AC50 ([10]; concentration for 50% maximum activation of multimerization): 47 ± 31 nM
IN multimerization Plateau ([10]; maximum multimerization reached versus baseline): 500 ± 43%
Fold change in EC50 relative to parental NL4-3, AA ([11]; recombinant NL4-3, IN 124/125 AA): 1
Fold change in EC50 relative to parental NL4-3, AM ([11]; recombinant NL4-3, IN 124/125 AM): 1
Fold change in EC50 relative to parental NL4-3, AT ([11]; recombinant NL4-3, IN 124/125 AT): 1
Fold change in EC50 relative to parental NL4-3, AV ([11]; recombinant NL4-3, IN 124/125 AV): 2
Fold change in EC50 relative to parental NL4-3, GA ([11]; recombinant NL4-3, IN 124/125 GA): 3
Fold change in EC50 relative to parental NL4-3, GT ([11]; recombinant NL4-3, IN 124/125 GT): 3
Fold change in EC50 relative to parental NL4-3, NA ([11]; recombinant NL4-3, IN 124/125 NA): 10
Fold change in EC50 relative to parental NL4-3, NT ([11]; recombinant NL4-3, IN 124/125 NT): 5
Fold change in EC50 relative to parental NL4-3, NV ([11]; recombinant NL4-3, IN 124/125 NV): 5
Fold change in EC50 relative to parental NL4-3, SA ([11]; recombinant NL4-3, IN 124/125 SA): 4
Fold change in EC50 relative to parental NL4-3, ST ([11]; recombinant NL4-3, IN 124/125 ST): 2
Fold change in EC50 relative to parental NL4-3, TA ([11]; recombinant NL4-3, IN 124/125 TA): 2
Fold change in EC50 relative to parental NL4-3, TM ([11]; recombinant NL4-3, IN 124/125 TM): 1
Fold change in EC50 relative to parental NL4-3, TV ([11]; recombinant NL4-3, IN 124/125 TV): 1
EC90 ([12]; Human immunodeficiency virus 1, NL43, multiple-round infection, from dose response curves, read-out: EC90 NL4-3): 21 ± 7.2 nM
EC50 ([12]; Human immunodeficiency virus 1, NL43, multiple-round infection, mean ± SD, n > 5, read-out: EC50 NL4-3): 12 ± 3 nM
Selectivity index CC50/EC50 NL4-3 [12]: 2,333

Cc1nc2c(c(C)c(C)n2Cc2cnn(C)c2)c(-c2ccc(Cl)cc2)c1[C@H](OC(C)(C)C)C(=O)O [STP0404, Pirmitegravir]
tolerability in clinical phase I study [13]: Well tolerated
